Results reported in PubChem BioAssay AID328 (DTP/NCI, 2004).
Several values for one entry are separate records, joined by “and”; a condition that tells them apart may be missing. Equal entries are not always repeated. Toxic doses and inconclusive results are not listed.

System: BDF1 mice, P388 leukemia ip, median survival T/C
Test: NCI In Vivo Anticancer Drug Screen. Data for tumor model P388 Leukemia (intraperitoneal) in B6D2F1 (BDF1) mice
Conditions: endpoint: median survival time, higher = longer survival
Method in brief: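 Steps: implant the tumour, treat one group with compound and another with vehicle, record survival, then divide treated by control.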

[1] = dose: 25.0 mg/kg/injection, schedule: Q04DX003 (ip), vehicle: saline with Tween-80
[2] = dose: 50.0 mg/kg/injection, schedule: Q04DX003 (ip), vehicle: saline with Tween-80
[3] = dose: 100.0 mg/kg/injection, schedule: Q04DX003 (ip), vehicle: saline
[4] = dose: 200.0 mg/kg/injection, schedule: Q04DX003 (ip), vehicle: saline
[5] = dose: 400.0 mg/kg/injection, schedule: Q04DX003 (ip), vehicle: saline
[6] = dose: 50.0 mg/kg/injection, schedule: Q01DX009 (ip), vehicle: Klucel (hydroxypropylcellulose) (HPC)
[7] = dose: 100.0 mg/kg/injection, schedule: Q01DX009 (ip), vehicle: Klucel (hydroxypropylcellulose) (HPC)
[8] = dose: 200.0 mg/kg/injection, schedule: Q01DX009 (ip), vehicle: Klucel (hydroxypropylcellulose) (HPC)
[9] = dose: 100.0 mg/kg/injection, schedule: Q04DX003 (ip), vehicle: Klucel (hydroxypropylcellulose) (HPC)
[10] = dose: 200.0 mg/kg/injection, schedule: Q04DX003 (ip), vehicle: Klucel (hydroxypropylcellulose) (HPC)
[11] = dose: 50.0 mg/kg/injection, schedule: Q01DX009 (ip), vehicle: saline with Tween-80
[12] = dose: 100.0 mg/kg/injection, schedule: Q01DX009 (ip), vehicle: saline with Tween-80
[13] = dose: 200.0 mg/kg/injection, schedule: Q01DX009 (ip), vehicle: saline with Tween-80
[14] = dose: 1.56 mg/kg/injection, schedule: Q01DX009 (ip), vehicle: saline
[15] = dose: 25.0 mg/kg/injection, schedule: Q01DX009 (ip), vehicle: saline with Tween-80
[16] = dose: 100.0 mg/kg/injection, schedule: Q04DX003 (ip), vehicle: saline with Tween-80
[17] = dose: 200.0 mg/kg/injection, schedule: Q04DX003 (ip), vehicle: saline with Tween-80
[18] = dose: 400.0 mg/kg/injection, schedule: Q04DX003 (ip), vehicle: saline with Tween-80
[19] = dose: 6.25 mg/kg/injection, schedule: Q01DX009 (ip), vehicle: saline with Tween-80
[20] = dose: 100.0 mg/kg/injection, schedule: Q01DX009 (ip), vehicle: saline
[21] = dose: 400.0 mg/kg/injection, schedule: Q04DX003 (ip), vehicle: Klucel (hydroxypropylcellulose) (HPC)
[22] = dose: 50.0 mg/kg/injection, schedule: Q04DX003 (ip), vehicle: saline

CCS(=O)(=O)CC
T/C (dose: 100.0 mg/kg/injection, schedule: Q04DX003 (ip), vehicle: saline sonified): 95 % of control | T/C (dose: 200.0 mg/kg/injection, schedule: Q04DX003 (ip), vehicle: saline sonified): 100 % of control | T/C (dose: 400.0 mg/kg/injection, schedule: Q04DX003 (ip), vehicle: saline sonified): 100 % of control

COC(=O)c1cc(=O)nc(N/N=C/c2ccc3c(c2)OCO3)s1
T/C (dose: 50.0 mg/kg/injection, schedule: Q01DX005 (ip), vehicle: saline with Tween-80): 92 % of control | T/C (dose: 200.0 mg/kg/injection, schedule: Q01DX005 (ip), vehicle: saline with Tween-80): 96 % of control

CCCCOP(=O)(O)CCCC.[Al]
T/C (dose: 12.5 mg/kg/injection, schedule: Q04DX003 (ip), vehicle: saline with Tween-80): 97 % of control | T/C [1]: 97 % of control | T/C [2]: 91 % of control

NCCCCNC(=O)c1csc(-c2csc(CCNC(=O)c3ccccc3)n2)n1
T/C (dose: 8.0 mg/kg/injection, schedule: Q01DX009 (ip), vehicle: saline): 100 % of control | T/C (dose: 16.0 mg/kg/injection, schedule: Q01DX009 (ip), vehicle: saline): 100 % of control | T/C (dose: 32.0 mg/kg/injection, schedule: Q01DX009 (ip), vehicle: saline): 100 % of control | T/C (dose: 64.0 mg/kg/injection, schedule: Q01DX009 (ip), vehicle: saline): 110 % of control

CCOC(=O)CCSCC(C)(C)C(=O)OCC
T/C [3]: 90 % of control | T/C [4]: 100 % of control | T/C [5]: 95 % of control

CC(c1ccccc1)N1CCS(=O)(=O)CC1 (configuration not stated)
T/C [6]: 93 % of control | T/C [7]: 106 % of control | T/C [8]: 90 % of control

CCCCCCCCCCCCS(=O)(=O)O (tested in a mixture with another compound)
T/C [9]: 95 % of control | T/C [10]: 90 % of control

COc1ccc(NCCN(C)C)c2c(=O)c3ccccc3sc12
T/C [11]: 97 % of control | T/C [12]: 101 % of control | T/C [13]: 108 % of control

CC(=O)OCCN1CCN(CCCN2c3ccccc3Sc3ccc(C(F)(F)F)cc32)CC1
T/C (dose: 0.69 mg/kg/injection, schedule: Q01DX009 (ip), vehicle: saline): 104 % of control | T/C (dose: 1.04 mg/kg/injection, schedule: Q01DX009 (ip), vehicle: saline): 104 % of control | T/C [14]: 120 % of control | T/C (dose: 2.34 mg/kg/injection, schedule: Q01DX009 (ip), vehicle: saline): 108 % of control | T/C [1]: 117 % of control | T/C [2]: 91 % of control

CCCNC(=O)/C=C\S(=O)CCC (configuration not stated)
T/C [15]: 100 % of control | T/C [11]: 98 % of control | T/C [12]: 112 % of control

Cc1sc2ncnc(N)c2c1C
T/C [2]: 103 % of control | T/C [16]: 105 % of control | T/C [17]: 94 % of control | T/C [18]: 105 % of control

CCCCCCCCCC[N+](C)(C)CCC[N+](C)(C)CCCCCCCCCC
T/C (dose: 0.78 mg/kg/injection, schedule: Q01DX009 (ip), vehicle: saline): 87 % of control | T/C [14]: 98 % of control | T/C (dose: 3.12 mg/kg/injection, schedule: Q01DX009 (ip), vehicle: saline): 100 % of control | T/C (dose: 3.13 mg/kg/injection, schedule: Q01DX009 (ip), vehicle: saline): 120 % of control | T/C (dose: 6.25 mg/kg/injection, schedule: Q01DX009 (ip), vehicle: saline): 116 % of control and 123 % of control

O[C@@H]1CCCC[C@@H]1n1cnc2c(=S)nc[nH]c21
T/C [12]: 92 % of control | T/C [16]: 100 % of control | T/C [13]: 96 % of control | T/C [17]: 104 % of control | T/C [18]: 100 % of control

CCOc1ccc([N+](=O)[O-])cc1CN(CC)CC
T/C (dose: 5.0 mg/kg/injection, schedule: Q01DX009 (ip), vehicle: saline): 104 % of control | T/C (dose: 10.0 mg/kg/injection, schedule: Q01DX009 (ip), vehicle: saline): 95 % of control and 100 % of control | T/C (dose: 20.0 mg/kg/injection, schedule: Q01DX009 (ip), vehicle: saline): 113 % of control

C[Si](C)(OC(=O)N(CCCl)CCCl)O[Si](C)(C)OC(=O)N(CCCl)CCCl
T/C [19]: 110 % of control | T/C [15]: 185 % of control | T/C [11]: 208 % of control

Cn1c(C(C)(C)O)cnc1[N+](=O)[O-]
T/C (dose: 12.5 mg/kg/injection, schedule: Q01DX009 (ip), vehicle: saline with Tween-80): 105 % of control | T/C [15]: 105 % of control | T/C [11]: 110 % of control

Brc1csc2ncccc12
T/C [9]: 90 % of control | T/C [10]: 109 % of control

COc1cc(N2CCOCC2)ccc1[N+](=O)[O-]
T/C [20]: 91 % of control | T/C [3]: 109 % of control | T/C (dose: 200.0 mg/kg/injection, schedule: Q01DX009 (ip), vehicle: saline): 100 % of control | T/C [4]: 104 % of control | T/C [5]: 95 % of control

[N-]=[N+]=NC(=O)c1ccccn1
T/C [15]: 101 % of control

Nc1nc(CCl)nc(Nc2ccccc2)n1
T/C (dose: 12.5 mg/kg/injection, schedule: Q01DX009 (ip), vehicle: Klucel (hydroxypropylcellulose) (HPC)): 100 % of control | T/C (dose: 25.0 mg/kg/injection, schedule: Q01DX009 (ip), vehicle: Klucel (hydroxypropylcellulose) (HPC)): 98 % of control | T/C [6]: 102 % of control | T/C [7]: 100 % of control

COC(C)C(O)(C(N)=O)C(C)C (configuration not stated)
T/C [7]: 95 % of control | T/C [9]: 100 % of control | T/C [8]: 86 % of control | T/C [10]: 100 % of control | T/C (dose: 400.0 mg/kg/injection, schedule: Q01DX009 (ip), vehicle: Klucel (hydroxypropylcellulose) (HPC)): 90 % of control | T/C [21]: 100 % of control

CC(C)(C)NC(=S)N/N=C/c1cc(Cl)cc(Cl)c1O
T/C (dose: 1.56 mg/kg/injection, schedule: Q01DX009 (ip), vehicle: saline with Tween-80): 94 % of control | T/C (dose: 3.12 mg/kg/injection, schedule: Q01DX009 (ip), vehicle: saline with Tween-80): 100 % of control | T/C [19]: 99 % of control

CSCC(N)CO (configuration not stated)
T/C (dose: 25.0 mg/kg/injection, schedule: Q04DX003 (ip), vehicle: saline): 104 % of control | T/C [22]: 111 % of control and 116 % of control | T/C [3]: 116 % of control | T/C [4]: 109 % of control and 111 % of control | T/C [5]: 90 % of control and 120 % of control

Cc1cc([N+](=O)[O-])cc([N+](=O)[O-])c1OC(=O)c1ccc(N=C(N)N)cc1
T/C (dose: 25.0 mg/kg/injection, schedule: Q01DX009 (ip), vehicle: saline): 110 % of control | T/C (dose: 50.0 mg/kg/injection, schedule: Q01DX009 (ip), vehicle: saline): 110 % of control | T/C [22]: 109 % of control | T/C [20]: 110 % of control | T/C [3]: 100 % of control | T/C (dose: 150.0 mg/kg/injection, schedule: Q01DX009 (ip), vehicle: saline): 110 % of control | T/C [4]: 90 % of control

COc1ccc(C[n+]2cc([O-])on2)cc1
T/C [1]: 100 % of control | T/C [2]: 100 % of control | T/C [16]: 109 % of control and 113 % of control | T/C [17]: 113 % of control

CC(=O)Nc1nnc(/C=C/c2ccc([N+](=O)[O-])o2)s1
T/C [21]: 100 % of control

NN=C(c1ccccc1)c1ccccc1
T/C (dose: 20.93 mg/kg/injection, schedule: Q01DX009 (ip), vehicle: Klucel (hydroxypropylcellulose) (HPC)): 86 % of control | T/C (dose: 31.25 mg/kg/injection, schedule: Q04DX003 (ip), vehicle: Klucel (hydroxypropylcellulose) (HPC)): 90 % of control and 104 % of control | T/C (dose: 41.87 mg/kg/injection, schedule: Q01DX009 (ip), vehicle: Klucel (hydroxypropylcellulose) (HPC)): 95 % of control | T/C (dose: 62.5 mg/kg/injection, schedule: Q04DX003 (ip), vehicle: Klucel (hydroxypropylcellulose) (HPC)): 90 % of control | T/C (dose: 125.0 mg/kg/injection, schedule: Q04DX003 (ip), vehicle: Klucel (hydroxypropylcellulose) (HPC)): 90 % of control | T/C (dose: 190.0 mg/kg/injection, schedule: Q04DX003 (ip), vehicle: Klucel (hydroxypropylcellulose) (HPC)): 86 % of control

COCC(O)CCl (configuration not stated)
T/C [2]: 100 % of control | T/C [16]: 100 % of control and 110 % of control | T/C [17]: 100 % of control and 110 % of control

c1ccc(-c2cc3c(N4CCOCC4)nnc(N4CCOCC4)c3cn2)cc1
T/C [11]: 89 % of control | T/C [12]: 86 % of control

CCOC(=O)C1(C(C)C)OC2(O)CCCCCN2C1=O (configuration not stated)
T/C [11]: 95 % of control | T/C [12]: 109 % of control | T/C [13]: 104 % of control
